Data taken from ChEMBL document CHEMBL1126397, “Synthesis of acid stable 5-o-fluoromethyl phosphonates of nucleosides. Evaluation as inhibitors of reverse transcriptase” (Bioorg Med Chem Lett, 1992).

Molecular target: T1, Avian myoblastosis virus polyprotein II (Avian myeloblastosis virus, UniProt Q86831)
T1 sequence (Q86831 whole entry): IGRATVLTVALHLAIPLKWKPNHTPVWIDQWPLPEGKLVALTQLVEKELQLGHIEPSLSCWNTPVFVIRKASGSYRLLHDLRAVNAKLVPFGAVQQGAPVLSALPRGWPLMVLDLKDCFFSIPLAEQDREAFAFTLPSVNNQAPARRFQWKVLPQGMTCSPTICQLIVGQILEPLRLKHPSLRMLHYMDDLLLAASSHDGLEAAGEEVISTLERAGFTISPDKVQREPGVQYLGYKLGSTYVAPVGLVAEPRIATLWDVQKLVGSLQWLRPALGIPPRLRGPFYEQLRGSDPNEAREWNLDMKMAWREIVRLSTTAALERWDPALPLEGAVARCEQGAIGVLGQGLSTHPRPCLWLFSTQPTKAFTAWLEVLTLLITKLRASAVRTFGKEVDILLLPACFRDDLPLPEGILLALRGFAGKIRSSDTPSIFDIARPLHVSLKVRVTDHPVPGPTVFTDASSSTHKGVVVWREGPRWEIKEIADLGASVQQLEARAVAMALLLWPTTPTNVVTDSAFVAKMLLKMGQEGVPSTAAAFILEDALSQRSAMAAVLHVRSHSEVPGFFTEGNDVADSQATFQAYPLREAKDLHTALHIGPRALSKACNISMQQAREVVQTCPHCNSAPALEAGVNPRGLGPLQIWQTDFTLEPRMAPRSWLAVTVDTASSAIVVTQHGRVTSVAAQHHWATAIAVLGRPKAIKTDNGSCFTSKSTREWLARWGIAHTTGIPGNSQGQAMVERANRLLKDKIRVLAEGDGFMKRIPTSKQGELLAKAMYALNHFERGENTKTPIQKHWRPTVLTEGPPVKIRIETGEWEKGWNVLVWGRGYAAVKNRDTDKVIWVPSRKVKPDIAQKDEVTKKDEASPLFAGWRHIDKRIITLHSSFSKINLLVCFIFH
Test: Inhibitor of avian myeloblastosis virus AMV reverse transcriptase

## Cc1cn(C2C=CC(COP(=O)(O)C(F)F)O2)c(=O)[nH]c1=O (stereo not given)
  IC50: 887 µM

## Cc1cn(C2C=CC(COP(=O)(O)C(F)(F)F)O2)c(=O)[nH]c1=O (stereo not given)
  IC50: 842 µM

## Cc1cn(C2CC(N=[N+]=[N-])C(COP(=O)(O)C(F)F)O2)c(=O)[nH]c1=O (stereo not given)
  IC50: 118 µM

## Cc1cn(C2CC(N=[N+]=[N-])C(COP(=O)(O)C(F)(F)F)O2)c(=O)[nH]c1=O (stereo not given)
  IC50: 37.6 µM

## O=c1[nH]c(=O)n([C@H]2C[C@H](O)[C@@H](COP(=O)(O)C(F)F)O2)cc1F
  IC50: 375 µM

## O=c1[nH]c(=O)n([C@H]2C[C@H](O)[C@@H](COP(=O)(O)C(F)(F)F)O2)cc1F
  IC50: 82 µM

## Cc1cn(C2C=CC(COP(=O)(O)CF)O2)c(=O)[nH]c1=O (stereo not given)
  IC50: 281 µM

## Cc1cn(C2CC(N=[N+]=[N-])C(COP(=O)(O)CF)O2)c(=O)[nH]c1=O (stereo not given)
  IC50: 127 µM

## Nc1nc(O)c2ncn(C3O[C@H](COP(=O)(O)C(F)(F)F)[C@@H](O)[C@H]3O)c2n1 (stereo not given in full)
  IC50: 145 µM

## Nc1ccn(C2O[C@H](COP(=O)(O)C(F)F)[C@@H](O)[C@H]2O)c(=O)n1 (stereo not given in full)
  IC50: 171 µM
